Assay results taken from patent US11780832B2, “Lactivicin compounds, their preparation and use as antibacterial agents” (priority 2021, dated 2023).
Values after ≈ are worked out from the molar mass of the structure shown. Like-named read-outs stand apart in the source and are kept apart here.

What was measured:
Assay in all cases: MIC, CLSI broth microdilution
Format in all cases: cell-based
[1] = tested on: Enterobacter cloacae species complex NDM-1
Protocol: (§1) Gram-negative and Gram-positive bacterial strains used during the in vitro minimum inhibitory concentration (MIC) determination were obtained either from the American Type Culture Collection (ATCC) or from clinical specimens. All strains were characterized genotypically and the respective antibiotic resistance markers for each strain were identified.
(§2) Isolates were sub-cultured onto appropriate media and stocked in skim milk at −80° C. Following two subcultures from frozen stock, in vitro antimicrobial susceptibility testing was performed using the Clinical and Laboratory Standards Institute (CLSI) broth microdilution method. Briefly, fresh cultures were suspended in culture media to give a final stock inoculum size of 5×10^7 colony forming units per milliliter of broth (CFU/mL). […] 100 μL of the stock solutions were added to the first wells in a 96-well plate and were then diluted using a 2-fold dilution method to give a range of 32-0.025 μg/mL. 100 μL of the bacterial suspensions were then added to the 96-well plates to give a final working inoculum size of 5×10^5 CFU/mL. The final compound concentration range was 16-0.0125 μg/mL. […] MICs for comparator agents were determined using custom-designed, in-house prepared 96-well broth microdilution panels.

[2] = tested on: Escherichia coli Empty pSMART plasmid
Protocol: as §1, §2

[3] = tested on: Klebsiella pneumoniae SHV-12
Protocol: as §1, §2

[4] = tested on: Escherichia coli pSMART_Ecloacae_AmpC
Protocol: as §1, §2

[5] = tested on: Escherichia coli Isogenic TEM-26
Protocol: as §1, §2

Escherichia coli CMY-2 = settings: CMY2
Protocol: as §1, §2

[6] = tested on: Escherichia coli CTX-M-15; settings: CTXM15
Protocol: as §1, §2

[7] = tested on: Pseudomonas aeruginosa ATCC 27853; settings: ATCC27853
Protocol: as §1, §2

[8] = tested on: Pseudomonas aeruginosa OprD negative
Protocol: as §1, §2

[9] = tested on: Klebsiella aerogenes VIM-1, SHV-12
Protocol: as §1, §2

[10] = tested on: Serratia marcescens AmpC overexpressed
Protocol: as §1, §2

[11] = tested on: Pseudomonas aeruginosa AmpC overexpressed
Protocol: as §1, §2

[12] = tested on: Klebsiella pneumoniae OXA-163, OXA-1_OXA-30, SHV-1, TEM-1
Protocol: as §1, §2

[13] = tested on: Klebsiella oxytoca KPC-2, TEM-1
Protocol: as §1, §2

Escherichia coli SHV-12 = settings: SHV12
Protocol: as §1, §2

[14] = tested on: Escherichia coli Isogenic TEM-10
Protocol: as §1, §2

[15] = tested on: Klebsiella pneumoniae KPC-3
Protocol: as §1, §2

[16] = tested on: Acinetobacter baumannii ATCC 19606; settings: ATCC19606
Protocol: as §1, §2

[17] = tested on: Escherichia coli ATCC 25922; settings: ATCC25922
Protocol: as §1, §2

[18] = tested on: Escherichia coli pSMART_Cfreundii_AmpC
Protocol: as §1, §2

[19] = tested on: Serratia marcescens SME-2; settings: SME2
Protocol: as §1, §2

[20] = tested on: Citrobacter freundii species complex OXA-181
Protocol: as §1, §2

[21] = tested on: Klebsiella pneumoniae KPC-2; settings: KPC2
Protocol: as §1, §2

[22] = tested on: Klebsiella pneumoniae OXA-48, SHV-1
Protocol: as §1, §2

[23] = Citrobacter freundii species complex, OXA-181, read-out: MIC

Compound | MIC [1] [µg/mL] | MIC [2] [µg/mL] | MIC [4] [µg/mL] | MIC [5] [µg/mL] | MIC (Escherichia coli CMY-2) [µg/mL] | MIC [6] [µg/mL] | MIC [7] [µg/mL] | MIC [8] [µg/mL] | MIC [9] [µg/mL] | MIC [10] [µg/mL] | MIC [11] [µg/mL] | MIC [12] [µg/mL] | MIC (Escherichia coli SHV-12) [µg/mL] | MIC [14] [µg/mL] | MIC [16] [µg/mL] | MIC [17] [µg/mL] | MIC [18] [µg/mL] | MIC [19] [µg/mL] | MIC [21] [µg/mL] | MIC [22] [µg/mL] | further results
Nc1nc(/C(=N/OC2(C(=O)O)CC3CCC(C2)O3)C(=O)N[C@H]2CON(C3(C(=O)O)C[C@H](N4C(=O)c5cc(O)c(O)cc5C4=O)C(=O)O3)C2=O)cs1 (stereo partly drawn) [Cmpd 13, 3-({(Z)-[1-(2-amino-1,3-thiazol-4-yl)-2-({(4S)-2-[(4S)-2-carboxy-4-(5,6-dihydroxy-1,3-dioxo-1,3-dihydro-2H-isoindol-2-yl)-5-oxooxolan-2-yl]-3-oxo-1,2-oxazolidin-4-yl}amino)-2-oxoethylidene]amino}oxy)-8-oxabicyclo[3.2.1]octane-3-carboxylic acid] | 1 (≈ 1.37 µM) | 0.12 (≈ 0.164 µM) | 0.06 (≈ 0.0821 µM) | 0.03 (≈ 0.0411 µM) | 0.5 (≈ 0.684 µM) | 4 (≈ 5.47 µM) | 0.25 (≈ 0.342 µM) | 0.25 (≈ 0.342 µM) | 0.25 (≈ 0.342 µM) | 0.12 (≈ 0.164 µM) | 1 (≈ 1.37 µM) | 0.12 (≈ 0.164 µM) | 2 (≈ 2.74 µM) | 0.03 (≈ 0.0411 µM) | 0.12 (≈ 0.164 µM) | 0.12 (≈ 0.164 µM) | 0.06 (≈ 0.0821 µM) | 0.25 (≈ 0.342 µM) | 0.25 (≈ 0.342 µM) | 0.0149 (≈ 0.0204 µM) | MIC ([3]; SHV12, SHV-12, read-out: MIC): 0.03 µg/mL (≈ 0.0411 µM); MIC ([13]; KPC-2, TEM-1, read-out: MIC): 0.0149 µg/mL (≈ 0.0204 µM); MIC ([15]; KPC3, KPC-3, read-out: MIC): 0.06 µg/mL (≈ 0.0821 µM); MIC [20, 23]: 0.0149 µg/mL (≈ 0.0204 µM)
Nc1nc(/C(=N/OC2(C(=O)O)COC2)C(=O)N[C@H]2CON(C3(C(=O)O)C[C@H](N4C(=O)c5cc(O)c(O)cc5C4=O)C(=O)O3)C2=O)cs1 (stereo partly drawn) [Cmpd 5, (4S)-2-[(4S)-4-{[(2Z)-2-(2-amino-1,3-thiazol-4-yl)-2-{[(3-carboxyoxetan-3-yl)oxy]imino}acetyl]amino}-3-oxo-1,2-oxazolidin-2-yl]-4-(5,6-dihydroxy-1,3-dioxo-1,3-dihydro-2H-isoindol-2-yl)-5-oxooxolane-2-carboxylic acid] | 0.25 (≈ 0.37 µM) | ≤ 0.015 | 0.06 (≈ 0.0887 µM) | 0.03 (≈ 0.0443 µM) | 4 (≈ 5.91 µM) | 2 (≈ 2.96 µM) | 0.25 (≈ 0.37 µM) | 2 (≈ 2.96 µM) | 2 (≈ 2.96 µM) | 0.25 (≈ 0.37 µM) | 1 (≈ 1.48 µM) | 0.06 (≈ 0.0887 µM) | 1 (≈ 1.48 µM) | 0.03 (≈ 0.0443 µM) | 0.12 (≈ 0.177 µM) | 0.25 (≈ 0.37 µM) | 0.25 (≈ 0.37 µM) | 0.12 (≈ 0.177 µM) | 0.06 (≈ 0.0887 µM) | ≤ 0.015 | MIC ([3]; SHV12, SHV-12, read-out: MIC): 0.03 µg/mL (≈ 0.0443 µM); MIC ([13]; KPC-2, TEM-1, read-out: MIC): ≤ 0.015 µg/mL; MIC ([15]; KPC3, KPC-3, read-out: MIC): 0.03 µg/mL (≈ 0.0443 µM); MIC [20, 23]: 0.06 µg/mL (≈ 0.0887 µM)
CC(C)(O/N=C(\C(=O)N[C@H]1CON(C2(C(=O)O)C[C@@H](N3C(=O)c4cc(O)c(O)cc4C3=O)C(=O)O2)C1=O)c1csc(N)n1)C(=O)O (stereo partly drawn) [Cmpd 40, (4R)-2-[(4S)-4-{[(2Z)-2-(2-amino-1,3-thiazol-4-yl)-2-{[(2-carboxypropan-2-yl)oxy]imino}acetyl]amino}-3-oxo-1,2-oxazolidin-2-yl]-4-(5,6-dihydroxy-1,3-dioxo-1,3-dihydro-2H-isoindol-2-yl)-5-oxooxolane-2-carboxylic acid] | 2 (≈ 3.02 µM) | ≤ 0.015 | 0.06 (≈ 0.0906 µM) | ≤ 0.015 | 2 (≈ 3.02 µM) | 2 (≈ 3.02 µM) | 0.12 (≈ 0.181 µM) | 0.12 (≈ 0.181 µM) | 0.25 (≈ 0.377 µM) | 0.12 (≈ 0.181 µM) | 8 (≈ 12.1 µM) | 0.06 (≈ 0.0906 µM) | 1 (≈ 1.51 µM) | 0.03 (≈ 0.0453 µM) | 0.12 (≈ 0.181 µM) | 0.06 (≈ 0.0906 µM) | 0.12 (≈ 0.181 µM) | 0.06 (≈ 0.0906 µM) | ≤ 0.015 | 0.03 (≈ 0.0453 µM) | MIC ([3]; SHV12, SHV-12, read-out: MIC): ≤ 0.015 µg/mL; MIC ([13]; KPC-2, TEM-1, read-out: MIC): ≤ 0.015 µg/mL; MIC ([15]; KPC3, KPC-3, read-out: MIC): 0.03 µg/mL (≈ 0.0453 µM); MIC [20, 23]: 0.25 µg/mL (≈ 0.377 µM)
Nc1nc(/C(=N/OC2(C(=O)O)CC3CCC(C2)O3)C(=O)N[C@H]2CON(C3(C(=O)O)C[C@H](N4C(=O)c5cc(O)c(O)nc5C4=O)C(=O)O3)C2=O)cs1 (stereo partly drawn) [Cmpd 27, 3-({(Z)-[1-(2-amino-1,3-thiazol-4-yl)-2-({(4S)-2-[(4S)-2-carboxy-4-(2,3-dihydroxy-5,7-dioxo-5,7-dihydro-6H-pyrrolo[3,4-b]pyridin-6-yl)-5-oxooxolan-2-yl]-3-oxo-1,2-oxazolidin-4-yl}amino)-2-oxoethylidene]amino}oxy)-8-oxabicyclo[3.2.1]octane-3-carboxylic acid] | 2 (≈ 2.73 µM) | 0.25 (≈ 0.342 µM) | 0.25 (≈ 0.342 µM) | 0.12 (≈ 0.164 µM) | 4 (≈ 5.47 µM) | 8 (≈ 10.9 µM) | 4 (≈ 5.47 µM) | 2 (≈ 2.73 µM) | 0.12 (≈ 0.164 µM) | 0.5 (≈ 0.683 µM) | 4 (≈ 5.47 µM) | 0.25 (≈ 0.342 µM) | 8 (≈ 10.9 µM) | 0.25 (≈ 0.342 µM) | 1 (≈ 1.37 µM) | 0.5 (≈ 0.683 µM) | 0.25 (≈ 0.342 µM) | 1 (≈ 1.37 µM) | 0.06 (≈ 0.082 µM) | 0.03 (≈ 0.041 µM) | MIC ([3]; SHV12, SHV-12, read-out: MIC): 0.12 µg/mL (≈ 0.164 µM); MIC ([13]; KPC-2, TEM-1, read-out: MIC): 0.0149 µg/mL (≈ 0.0204 µM); MIC ([15]; KPC3, KPC-3, read-out: MIC): 0.12 µg/mL (≈ 0.164 µM); MIC [20, 23]: 0.12 µg/mL (≈ 0.164 µM)
Nc1nc(/C(=N/OC(CO)(CCl)C(=O)O)C(=O)N[C@H]2CON(C3(C(=O)O)C[C@H](N4C(=O)c5cc(O)c(O)cc5C4=O)C(=O)O3)C2=O)cs1 (stereo partly drawn) [Cmpd 6, (4S)-2-[(4S)-4-{[(2Z)-2-(2-amino-1,3-thiazol-4-yl)-2-{[(2-carboxy-1-chloro-3-hydroxypropan-2-yl)oxy]imino}acetyl]amino}-3-oxo-1,2-oxazolidin-2-yl]-4-(5,6-dihydroxy-1,3-dioxo-1,3-dihydro-2H-isoindol-2-yl)-5-oxooxolane-2-carboxylic acid] | 0.25 (≈ 0.351 µM) | ≤ 0.015 | 0.06 (≈ 0.0842 µM) | ≤ 0.015 | 1 (≈ 1.4 µM) | 2 (≈ 2.81 µM) | 0.25 (≈ 0.351 µM) | 2 (≈ 2.81 µM) | 0.5 (≈ 0.701 µM) | 0.12 (≈ 0.168 µM) | 1 (≈ 1.4 µM) | 0.03 (≈ 0.0421 µM) | 1 (≈ 1.4 µM) | ≤ 0.015 | 0.12 (≈ 0.168 µM) | 0.12 (≈ 0.168 µM) | 0.06 (≈ 0.0842 µM) | 0.06 (≈ 0.0842 µM) | 0.03 (≈ 0.0421 µM) | ≤ 0.015 | MIC ([3]; SHV12, SHV-12, read-out: MIC): ≤ 0.015 µg/mL; MIC ([13]; KPC-2, TEM-1, read-out: MIC): ≤ 0.015 µg/mL; MIC ([15]; KPC3, KPC-3, read-out: MIC): 0.03 µg/mL (≈ 0.0421 µM); MIC [20, 23]: ≤ 0.015 µg/mL
CC(C)(O/N=C(\C(=O)N[C@H]1CON(C2(C(=O)O)C[C@H](N3C(=O)c4cc(O)c(O)nc4C3=O)C(=O)O2)C1=O)c1csc(N)n1)C(=O)O (stereo partly drawn) [Cmpd 36, (4S)-2-[(4S)-4-{[(2Z)-2-(2-amino-1,3-thiazol-4-yl)-2-{[(2-carboxypropan-2-yl)oxy]imino}acetyl]amino}-3-oxo-1,2-oxazolidin-2-yl]-4-(2,3-dihydroxy-5,7-dioxo-5,7-dihydro-6H-pyrrolo[3,4-b]pyridin-6-yl)-5-oxooxolane-2-carboxylic acid] | 0.25 (≈ 0.377 µM) | 0.06 (≈ 0.0904 µM) | 0.03 (≈ 0.0452 µM) | 0.0149 (≈ 0.0225 µM) | 1 (≈ 1.51 µM) | 2 (≈ 3.01 µM) | 0.12 (≈ 0.181 µM) | 0.12 (≈ 0.181 µM) | 2 (≈ 3.01 µM) | 0.06 (≈ 0.0904 µM) | 0.5 (≈ 0.754 µM) | 0.06 (≈ 0.0904 µM) | 1 (≈ 1.51 µM) | 0.0149 (≈ 0.0225 µM) | 0.12 (≈ 0.181 µM) | 0.06 (≈ 0.0904 µM) | 0.06 (≈ 0.0904 µM) | 0.06 (≈ 0.0904 µM) | 0.12 (≈ 0.181 µM) | 0.0149 (≈ 0.0225 µM) | MIC ([3]; SHV12): 0.0149 µg/mL (≈ 0.0225 µM); MIC [13]: 0.0149 µg/mL (≈ 0.0225 µM); MIC ([15]; KPC3): 0.0149 µg/mL (≈ 0.0225 µM); MIC ([20]; Citrobacter freundii): 0.0149 µg/mL (≈ 0.0225 µM)
